From patent US20040248775A1, “Methods for screening inhibitors of apoptosis” (Wyeth, priority 2003, published 2004) come the findings set out here.

The target in this assay is T1, NBS mutant NALP1 (Homo sapiens, UniProt Q9C000, G339E/K340A).
T1 construct: to generate full-length NALP1 in frame with EGFP; expressed in transfected cells; host or cells: HeLa cells, transient transfection; S-100 extract used
T1 sequence (Q9C000 1-1473 G339E/K340A): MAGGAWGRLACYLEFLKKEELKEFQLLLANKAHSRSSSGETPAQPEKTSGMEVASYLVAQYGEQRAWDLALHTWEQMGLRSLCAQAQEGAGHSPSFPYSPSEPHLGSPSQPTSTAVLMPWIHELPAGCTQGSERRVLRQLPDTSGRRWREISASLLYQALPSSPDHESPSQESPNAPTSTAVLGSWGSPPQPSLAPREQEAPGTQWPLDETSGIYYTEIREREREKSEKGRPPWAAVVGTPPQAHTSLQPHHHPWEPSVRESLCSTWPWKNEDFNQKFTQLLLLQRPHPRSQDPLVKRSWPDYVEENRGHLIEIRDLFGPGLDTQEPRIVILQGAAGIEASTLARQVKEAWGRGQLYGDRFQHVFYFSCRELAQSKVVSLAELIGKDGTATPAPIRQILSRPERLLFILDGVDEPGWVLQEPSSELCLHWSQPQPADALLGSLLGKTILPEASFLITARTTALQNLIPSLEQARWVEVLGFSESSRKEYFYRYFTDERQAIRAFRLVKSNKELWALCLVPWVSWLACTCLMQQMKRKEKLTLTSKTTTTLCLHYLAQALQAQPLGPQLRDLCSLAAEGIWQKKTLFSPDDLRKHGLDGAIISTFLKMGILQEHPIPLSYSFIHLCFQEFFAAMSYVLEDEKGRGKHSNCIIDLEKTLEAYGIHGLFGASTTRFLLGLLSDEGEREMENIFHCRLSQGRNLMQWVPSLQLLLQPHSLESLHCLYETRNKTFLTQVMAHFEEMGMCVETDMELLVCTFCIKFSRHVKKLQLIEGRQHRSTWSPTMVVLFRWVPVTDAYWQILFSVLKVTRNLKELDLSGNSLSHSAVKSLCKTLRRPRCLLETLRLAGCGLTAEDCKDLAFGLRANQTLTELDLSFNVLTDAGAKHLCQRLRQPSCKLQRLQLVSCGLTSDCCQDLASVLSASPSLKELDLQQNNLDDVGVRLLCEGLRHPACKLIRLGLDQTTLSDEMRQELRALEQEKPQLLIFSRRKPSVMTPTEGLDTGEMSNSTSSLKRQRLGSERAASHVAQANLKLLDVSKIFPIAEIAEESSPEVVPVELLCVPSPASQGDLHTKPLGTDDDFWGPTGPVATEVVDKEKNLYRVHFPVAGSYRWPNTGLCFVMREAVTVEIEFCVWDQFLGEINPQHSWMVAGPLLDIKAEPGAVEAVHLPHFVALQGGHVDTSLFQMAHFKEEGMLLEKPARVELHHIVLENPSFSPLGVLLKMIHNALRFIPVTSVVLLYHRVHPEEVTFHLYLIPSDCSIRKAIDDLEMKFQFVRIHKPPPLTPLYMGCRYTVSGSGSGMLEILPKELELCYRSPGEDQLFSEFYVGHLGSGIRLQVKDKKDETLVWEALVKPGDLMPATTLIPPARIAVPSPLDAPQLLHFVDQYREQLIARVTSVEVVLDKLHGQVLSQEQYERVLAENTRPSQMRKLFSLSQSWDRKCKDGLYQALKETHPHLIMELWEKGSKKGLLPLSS
The experiment in a line: Fluorimetric DEVDase (caspase-3) assay in HeLa cell extracts expressing NBS mutant NALP1-EGFP. The assay is classed as biochemical. The conditions noted are these: 2 mM dATP, 2 mM MgCl2, 1 hour, Ac-DEVD-AMC substrate. How it is done: Cell extract preparation and fluorimetric assay of caspase activity. Preparation of cell extracts, dATP incubation and caspase-3 activities assays were performed as described by Liu et al. (1996). Briefly, HeLa cells were grown in DMEM, 10% FBS. Cells were plated in T175 flasks to 60% confluence. Control vector pEGFP or wild-type or NBS mutant NALP1-EGFP expression plasmids were transfected into HeLa cells using Lipofectamine Plus. Cells were collected in homogenization buffer (20 mM HEPES pH 7.5, 10 mM KCl, 1 mM sodium EDTA, […], 1 mM sodium EGTA, 0.1% CHAPS, 1 mM DTT, 0.1 mM PMSF and protease inhibitor cocktail tablets (Roche)), 24 hours after transfection. Cells were chilled on ice for 15 minutes and homogenized by douncing 30 times in a glass douncer. Samples were centrifuged at 1000×g for 10 minutes at 4° C. […] After 2 hours incubation, liberation of AMC (7-amino-4-methylcoumarin) from the substrate was monitored using excitation/emission wavelength pairs (λex/λem) of 380/460 nm using a SpectraFluor Plus instrument (Tecan). Triplicate samples were evaluated with or without specific inhibitors. […] Normalized data from multiple experiments were expressed as means±standard deviation. For each experiment, the expression of EGFP-tagged NALP1 proteins was analyzed by anti-GFP immunoblot and quantified by densitometry.

Regarding `Nc1ncnc2c1ncn2[C@H]1C[C@H](O)[C@@H](COP(=O)(O)OP(=O)(O)OP(=O)(O)O)O1` [dATP], the “DEVDase activity, extracts with NBS mutant NALP1” value is given as “did not respond”.
